# System: 309 bp/bisPNA-affibody
# Assay: EMSA, TNFα complex formation
# Type: binding
substance,measurement,setting,value
TNFα,EMSA complex formation,"309 bp/PNA-affibody + TNFα, 1 h room temperature, pH 7.4",full DNA/PNA-affibody/TNFα complex formation
same,"EMSA saturation, ratio TNFα to scaffold/bisPNA-affibody",band intensity appears to saturate,≥ 3 X

# Reference: PMC6172217, “A handheld platform for target protein detection and quantification using disposable nanopore strips” (Scientific Reports, 2018)
